Results: US5658888A, “Erythromycin derivatives” (Chugai Seiyaku Kabushiki Kaisha, priority 1992, dated 1997)
Like-named read-outs stand apart in the source and are kept apart here.

Tests used:
[1] = molecular target: T1, motilin receptor (Oryctolagus cuniculus, UniProt G1T803); test: motilin receptor binding test (displacement of 125I-labelled motilin); parameters: species or system rabbit; details: for activity in the hydrochloric acid solution compared with that in the DMSO solution: HCl pH 2.5, 120 min vs. DMSO
T1 construct: From a killed rabbit was removed the duodenum; from tissue; host or cells: rabbit duodenum homogenate (mucous membrane detached from the tunica muscularis, homogenized in 50 mM Tris pH 7.4)
T1 sequence (G1T803 1-400): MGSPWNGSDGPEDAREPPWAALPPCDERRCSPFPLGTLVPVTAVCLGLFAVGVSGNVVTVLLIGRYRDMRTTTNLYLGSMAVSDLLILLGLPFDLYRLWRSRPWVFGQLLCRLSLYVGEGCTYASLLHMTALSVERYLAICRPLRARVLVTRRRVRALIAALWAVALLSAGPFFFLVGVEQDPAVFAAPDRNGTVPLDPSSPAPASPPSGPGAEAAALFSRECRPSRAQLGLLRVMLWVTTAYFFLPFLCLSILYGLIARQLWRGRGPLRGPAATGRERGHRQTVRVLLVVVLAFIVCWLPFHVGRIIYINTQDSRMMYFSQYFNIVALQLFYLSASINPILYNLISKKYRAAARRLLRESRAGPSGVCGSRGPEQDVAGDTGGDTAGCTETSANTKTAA
Procedure: A motilin receptor binding test was conducted in the manner described hereunder [V. Bormans, et al., Regul. Peptides, 15, 143 (1986)].
(§1) From a killed rabbit was removed the duodenum, of which the mucous membrane was detached from the tunica muscularis and then homogenized in a 50 mM Tris solution (pH 7.4) to prepare a protein solution. Twenty-five pM of ^125 I-labelled motilin (purchased from Ohtsuka Assay Laboratory) and the protein solution were incubated at 25° C. for 120 minutes, after which the radioactivity of the protein was measured with a γ-ray counter, the difference between the radioactivity observed in the case of non-addition of motilin and that observed in the case of addition of an excess (1×10^-7 m) of motilin being defined as the specific binding capacity. The efficacies of the samples were expressed as IC50 (M), the concentration of each of the test drugs which reduces the specific binding capacity to 50%. The test drug was dissolved in a DMSO solution and added to the protein solution (the final DMSO concentration:1%). In experiments on investigation of the acid resistance, the test drug was dissolved in a hydrochloric acid solution (pH 2.5) which was then allowed to stand at room temperature for 120 minutes prior to its addition to the protein solution for the experiments.

[2] = test system: gastric antrum contractile motility; test: gastrointestinal motility of the conscious dog (force transducers, intragastric administration); format: in vivo, Beagle dog; details: for ED (MI=150): Canis lupus familiaris, po, conscious dog, interdigestive state, gastric antrum, read-out: MI150 (test drug dosage required to provide MI=150); for gastrointestinal contractile activity (in words): administered into the stomach
Procedure: The gastrointestinal motility of the conscious dog was measured according to the method described previously [Itoh, Zen, Journal of the Smooth Muscle Research, 13, 33 (1976)]. Beagle dogs weighing approximately 10 kg were anesthetized with an intravenously (i.v.) injection of pentobarbital sodium and the abdominal cavity was opened under aseptic conditions. Extraluminal force transducers were sutured onto the serosa of the gastric antrum (stomach), duodenum and jejunum in a manner to measure circular muscle contraction. In addition, a Silastic tube [French, size 6.5, Dow Corning, Midland, Mich., U.S.A.) was placed into the stomach for direct administration of test drugs into the stomach. The lead wires of these force transducers and a Silastic tube were led out of the abdominal cavity and through a skin incision made between the scapulae. After the operation, the dogs were housed in individual experimental cages and given commercial dog food once a day.
The gastrointestinal motor activity was recorded on a thermal pen-writing recorder (WR-3101, Graphtec, Tokyo, Japan) by connecting the lead wires of the transducers to the connecting cables from the amplifiers (UG-5, Nihon Kohden, Tokyo, Japan). About 2 weeks postoperatively, gastrointestinal contractile activity could be divided into two main patterns of activity, interdigestive and digestive state. In the interdigestive state, IMC (interdigestive migrating contractions) were seen to occur at regular intervals of 100-120 minutes in the gastric antrum and migrated through the duodenum and jejunum at a constant velocity. In all animals, feeding disrupted the regular IMC pattern. Experiments were carried out during interdigestive state. The test drug was directly injected into the stomach through a Silastic tube placed in the stomach in a volume of 3 ml, 15 min after the end of the IMC in the gastric antrum. Test drugs were dissolved in ethanol, and then diluted with 0.9% physiological saline.
To measure motility quantitatively, the signals from the gastric antrum were relayed to a personal computer (PC-9801, NEC, Tokyo, Japan) every 100 ms. The area surrounded by the contraction waves and the base line, i.e., the product of the amplitude (voltage) and the time in minutes during a certain fixed period, was calculated, expressed as percent of the area assuming that maximum contraction (amplitude) of the interdigestive migrating contraction lasted for 1 min, and used as the motor index (MI) [Inatomi et al., J. Pharmacol. Exp. Ther. 251, 707 (1989)]. The MI, which is calculated in this manner, of the naturally occurred in the gastric antrum is about 100-200. Therefore, the test drug dosage required to provide MI=150 was defined to be MI150 which was used as the index of the stimulating effects or the gastric motility of test drugs.

[3] = background statement; cited from earlier work
[4] = acid resistance / decomposition by acid; format: physicochemical; details: compared with EM-523 / publicly known erythromycin derivatives
Procedure: as §1

| SMILES | level of activity in DMSO solution (comparison of Compound 6 and EM-523) [1] | activity in the hydrochloric acid solution compared with that in the DMSO solution [1] | ED (MI=150) ([2]; intragastric) [µg/kg] | gastrointestinal contractile activity (in words) [2] | stability in the presence of an acid (in words) [3] | IC50 ([1]; test drug in DMSO solution (final DMSO 1%), rabbit duodenum, 25 pM 125I-motilin, 25° C., 120 min, pH 7.4, read-out: IC50, Solution in DMSO) [nM] | IC50 ([1]; test drug stood in hydrochloric acid solution (pH 2.5) at room temperature for 120 minutes before the assay, read-out: IC50, Solution in HCl) [nM] | contractile activity in the gastric antrum relative to EM-523 ([2]; intragastric, ratio of potency to EM-523) | decomposition by acid (in words) [4] |
| --- | --- | --- | --- | --- | --- | --- | --- | --- | --- |
| CC[C@H]1OC(=O)[C@H](C)[C@@H](O[C@H]2C[C@@](C)(OC)[C@@H](O)[C@H](C)O2)[C@H](C)[C@@H](O[C@@H]2O[C@H](C)C[C@H](N(C)CC)[C@H]2O)[C@@]2(C)CC(C)=C(O2)[C@H](C)[C@@H](O)[C@]1(C)O [EM-523, reference compound] | the same level of activity | a decrease in the activity to one-100th that in the DMSO solution | 14.6 | increased gastrointestinal contractile activity | unstable in the presence of an acid | – | – | – | – |
| CC[C@H]1OC(=O)[C@H](C)[C@@H](O[C@H]2C[C@@](C)(OC)[C@@H](O)[C@H](C)O2)[C@H](C)[C@@H](O[C@@H]2O[C@H](C)C[C@H](N(C)C(C)C)[C@H]2O)[C@@]2(C)CC(C)=C(O2)[C@H](C)C(=O)[C@]1(C)OC [Compound 6, isopropyl-nor-12-O-methyl-11-oxo-8,9-anhydroerythromycin A 6,9-hemiketal] | the same level of activity | differing little from the value in the DMSO solution | 3.8 | increased gastrointestinal contractile activity | – | 4.1 | 9.1 | about 4 times | less decomposable with an acid than is EM-523 |
